Reference: BindingDB's records for doi:10.1111/cbdd.12050 (Epizyme, 2012)

Biological target: Histone-lysine N-methyltransferase, H3 lysine-79 specific (Homo sapiens, UniProt Q8TEK3)
Assay: Enzyme Assay
Protocol: Assay of DOT1L enzymatic activity were performed under balanced conditions using a radiometric assay.

Chain of Histone-lysine N-methyltransferase, H3 lysine-79 specific (Q8TEK3 whole entry): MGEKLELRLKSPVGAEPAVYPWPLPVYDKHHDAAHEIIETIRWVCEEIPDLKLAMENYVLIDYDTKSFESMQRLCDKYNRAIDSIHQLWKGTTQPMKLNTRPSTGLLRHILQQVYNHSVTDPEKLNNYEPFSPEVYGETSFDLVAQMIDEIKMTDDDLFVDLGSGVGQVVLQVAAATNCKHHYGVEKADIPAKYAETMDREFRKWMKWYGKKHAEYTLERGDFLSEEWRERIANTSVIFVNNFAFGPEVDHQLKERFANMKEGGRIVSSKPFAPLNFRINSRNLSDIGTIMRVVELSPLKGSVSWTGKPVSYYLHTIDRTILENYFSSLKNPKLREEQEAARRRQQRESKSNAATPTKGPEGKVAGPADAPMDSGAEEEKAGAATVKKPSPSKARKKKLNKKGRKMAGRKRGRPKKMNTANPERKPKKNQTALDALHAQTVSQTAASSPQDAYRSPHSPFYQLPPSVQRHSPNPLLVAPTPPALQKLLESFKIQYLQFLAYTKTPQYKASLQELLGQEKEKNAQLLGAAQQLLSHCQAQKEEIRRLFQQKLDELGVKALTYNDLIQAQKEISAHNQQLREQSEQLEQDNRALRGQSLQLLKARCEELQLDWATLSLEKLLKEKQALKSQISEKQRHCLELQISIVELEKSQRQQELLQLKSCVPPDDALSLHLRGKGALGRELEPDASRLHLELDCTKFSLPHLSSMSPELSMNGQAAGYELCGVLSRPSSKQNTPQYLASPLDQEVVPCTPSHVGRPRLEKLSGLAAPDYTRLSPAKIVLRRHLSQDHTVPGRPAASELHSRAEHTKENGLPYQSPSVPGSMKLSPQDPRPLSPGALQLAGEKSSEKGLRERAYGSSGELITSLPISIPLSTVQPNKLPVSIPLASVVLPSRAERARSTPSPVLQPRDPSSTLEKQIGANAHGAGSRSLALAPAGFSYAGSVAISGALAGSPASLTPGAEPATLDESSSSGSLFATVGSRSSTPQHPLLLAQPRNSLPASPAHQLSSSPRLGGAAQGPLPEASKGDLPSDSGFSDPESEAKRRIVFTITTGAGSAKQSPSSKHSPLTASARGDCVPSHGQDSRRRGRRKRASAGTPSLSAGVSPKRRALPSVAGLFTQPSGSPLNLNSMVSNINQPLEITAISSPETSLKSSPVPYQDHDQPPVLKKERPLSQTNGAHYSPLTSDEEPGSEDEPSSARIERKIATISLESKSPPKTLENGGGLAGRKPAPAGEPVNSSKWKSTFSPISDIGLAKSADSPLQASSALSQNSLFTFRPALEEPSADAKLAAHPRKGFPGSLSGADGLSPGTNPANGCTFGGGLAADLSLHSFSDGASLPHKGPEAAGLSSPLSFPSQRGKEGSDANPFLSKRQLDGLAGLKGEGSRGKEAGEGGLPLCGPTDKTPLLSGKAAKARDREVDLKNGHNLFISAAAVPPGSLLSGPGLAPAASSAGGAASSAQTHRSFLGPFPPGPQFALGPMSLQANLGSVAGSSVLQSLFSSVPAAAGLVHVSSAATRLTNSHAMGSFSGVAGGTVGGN

Kd: 167 nM
Ki: 845 nM
Structure (SMILES): CN(CCNC(=O)Nc1ccc(C(C)(C)C)cc1)CC1OC(n2cnc3c(N)ncnc32)[C@H](O)[C@@H]1O (some centres not stated) [EPZ003647]
